Measured values from patent US20220079966A1, “HYALURONAN SYNTHESIS INHIBITION FOR TREATING AUTOIMMUNE, INFLAMMATORY, FIBROTIC, OR PROLIFERATIVE DISEASES OR DISORDERS” (The Board of Trustees of the Leland Stanford Junior …, priority 2018, published 2022).

Tests used:
[1] = system: CTLL2 cells; assay: HA synthesis inhibition in CTLL2 lymphoma cells; format: cell-based; conditions: lymphoma cell line
Procedure: (§1) Samples were thawed and assayed for HA levels using a modified HA ELISA as previously described (Nagy N., et al., J. Clin. Invest. 2015; 125(10):3928-3940). Each sample was analyzed in triplicate with a mean value obtained per sample. For cell normalization, LI-COR CellTag™ 700 Stain was used according to the manufactures protocol.

[2] = system: Min6 cells; assay: HA synthesis inhibition in Min6 insulinoma cells; format: cell-based; conditions: insulinoma cell line
Procedure: as §1

[3] = system: DORmO mice; assay: DORmO mouse model of type 1 diabetes; format: in vivo; conditions: for HA accumulation in DORmO pancreatic islets (HA staining): 12 weeks of age, compared to untreated DORmO mice; for onset / progression of T1D as measured by blood glucose over time: fed from 5 weeks of age for 15 weeks
From the text: 10×RIPmOVA (DORmO) mouse. DORmO mice carry a T-cell receptor transgene specific for OVA (emulating autoreactive CD4+ T-cells), while simultaneously expressing OVA in conjunction with the insulin gene promoter on pancreatic beta cells (emulating the autoantigen). All animals were bred and maintained under specific pathogen-free conditions, with free access to food and water, in the animal facilities at Stanford University Medical School (Stanford, Calif.). B6 db/db LeptR-/- mice were purchased from Jackson Laboratories (JAX) as well as DO11.10 transgenic mice. The DO11.10 mice were bred with Balb/c mice expressing RIPmOva (ovalbumin peptide amino acids 323-339; available at the Benaroya Research Institute) to generate the DORmO double-transgenic mice. In addition, C57Bl/6J mice were bred in-house at Stanford University School of Medicine. Beginning at four weeks of age, mice were weighed weekly as well as bled via the tail vein for the determination of their blood glucose level using a Contour® blood glucose meter and blood glucose monitoring strips (Bayer Healthcare). When two consecutive blood glucose readings of 250 mg/dL were recorded, animals were considered diabetic. When two consecutive blood glucose readings of 300 mg/dL were recorded, animals were euthanized. The 4-MU (Alfa Aesar) was pressed into mouse chow (TestDiet, St. Louis, Mo.) and irradiated before shipment, as previously described (Nagy N., et al., Circulation. 2010; 122(22):2313-2322). This chow formulation delivers 250 mg/mouse/day, yielding a serum drug concentration of 640.3±17.2 nmol/L in mice, as measured by HPLC-MS. 4-MUG ([…], Wood Dale, Ill.) was distributed in the drinking water at a concentration of 2 mg/ml, delivering 10 mg/mouse/day, yielding a serum drug concentration of 357.1±72.6 ng/mL in mice, as measured by LC-MS/MS. Mice were initiated on 4-MU and 4-MUG at five, eight or twelve weeks of age, unless otherwise noted, and were maintained on this diet until they were euthanized, unless otherwise noted. For analysis of Foxp3+ regulatory T-cell numbers in naïve mice, mice were treated daily with 0.5 mg of 4-MU or 1.0 mg 4-MUG in 200 μl 0.08% carboxymethylcellulose in saline by intra-peritoneal injection. Tissues for histochemistry were extracted from the animals and immediately transferred into 10% neutral buffered formalin (NBF). The tissue was processed to paraffin on a Leica ASP300 Tissue Processor (Leica Microsystems Inc.). Then 5 μm thick sections were cut on a Leica RM 2255 Microtomes (Leica Microsystems Inc.). All staining steps were performed on a Leica Bond-MaxTM automated immune histochemistry (IHC) stainer (Leica Microsystems Inc.). For HA affinity histochemistry (AFC) the BondTM Intense R Detection kit, a streptavidin-HRP system, (Leica Microsystems, Inc.) was used with 4 μg/mL biotinylated-HABP in 0.1% BSA-PBS as the primary. The BondTM Polymer Detection Kit was used for all other immunohistochemistry. This detection kit contains a goat anti-rabbit conjugated to polymeric HRP and a rabbit anti-mouse post primary reagent for use with mouse primaries. For Foxp3 and insulin (anti-insulin, ab7842 abcam) sections were incubated 60 min with 8 μg/mL rat anti-Foxp3 clone FJK-16s (eBioscience). Incubation with rabbit anti rat IgG (Vector Labs), post-primary was added in lieu of the post-primary reagent from the kit.

[4] = system: db/db mice; assay: db/db mouse model of type 2 diabetes; format: in vivo; conditions: for body weight of db/db mice: after start of treatment; for intra-peritoneal glucose tolerance testing (IPGTT): fasting db/db mice fed drug for previous 2 weeks; for HA staining in pancreatic islets of db/db mice: mouse, in vivo; for blood glucose (BG) levels in db/db mice: over one month, 4-MU chow or 4-MUG in drinking water vs control chow
From the text: All animals were bred and maintained under specific pathogen-free conditions, with free access to food and water, in the animal facilities at Stanford University Medical School (Stanford, Calif.). B6 db/db LeptR−/− mice were purchased from Jackson Laboratories (JAX) as well as DO11.10 transgenic mice. The DO11.10 mice were bred with Balb/c mice expressing RIPmOva (ovalbumin peptide amino acids 323-339; available at the Benaroya Research Institute) to generate the DORmO double-transgenic mice. In addition, C57Bl/6J mice were bred in-house at Stanford University School of Medicine.
Beginning at four weeks of age, mice were weighed weekly as well as bled via the tail vein for the determination of their blood glucose level using a Contour® blood glucose meter and blood glucose monitoring strips (Bayer Healthcare). When two consecutive blood glucose readings of 250 mg/dL were recorded, animals were considered diabetic. When two consecutive blood glucose readings of 300 mg/dL were recorded, animals were euthanized.
The 4-MU (Alfa Aesar) was pressed into mouse chow (TestDiet, St. Louis, Mo.) and irradiated before shipment, as previously described (Nagy N., et al., Circulation. 2010; 122(22):2313-2322). This chow formulation delivers 250 mg/mouse/day, yielding a serum drug concentration of 640.3±17.2 nmol/L in mice, as measured by HPLC-MS. 4-MUG (ChemImpex, Wood Dale, Ill.) was distributed in the drinking water at a concentration of 2 mg/ml, delivering 10 mg/mouse/day, yielding a serum drug concentration of 357.1±72.6 ng/mL in mice, as measured by LC-MS/MS. Mice were initiated on 4-MU and 4-MUG at five, eight or twelve weeks of age, unless otherwise noted, and were maintained on this diet until they were euthanized, unless otherwise noted. For analysis of Foxp3+ regulatory T-cell numbers in naïve mice, mice were treated daily with 0.5 mg of 4-MU or 1.0 mg 4-MUG in 200 μl 0.08% carboxymethylcellulose in saline by intra-peritoneal injection.
To assess whether 4-MUG is effective against HA synthesis in a different inflammatory disease that is non-autoimmune in nature, the role of 4-MUG in the db/db model of type 2 diabetes was investigated. db/db mice lack a functional leptin receptor and are obese and diabetic.
Referring to FIG. 7D, the beneficial effect of 4-MU and 4-MUG on glycemic control was maintained for at least 10 weeks, indicating a lasting improvement. FIGS. 7F and 7G show intra-peritoneal glucose tolerance testing (IPGTT) of fasting db/db mice fed 4-MU or 4-MUG for 2 weeks.

[5] = cited from earlier work

Row | SMILES | HA synthesis inhibition in CTLL2 cells [1] | HA synthesis inhibition in Min6 cells [2] | HA accumulation in DORmO pancreatic islets (HA staining) [3] | insulin positive cells in pancreatic islets ([3]; DORmO mice) | onset / progression of T1D as measured by blood glucose over time [3] | Foxp3 regulatory T-cells in pancreatic islets (FoxP3 staining) ([3]; non-diabetic treated DORmO mice) | body weight of db/db mice [4] | intra-peritoneal glucose tolerance testing (IPGTT) [4] | HA staining in pancreatic islets of db/db mice [4] | blood glucose (BG) levels in db/db mice [4] | half-life ([5]; in mice) | concentration of 4-MUG relative to parent molecule 4-MU ([5]; animal studies) | median plasma concentration of 4-MUG relative to 4-MU ([5]; mouse models)
1 | Cc1cc(=O)oc2cc(O)ccc12 [4-MU, 4-methylumbelliferone] | HA synthesis inhibition | HA synthesis inhibition | decrease of HA accumulation | insulin positive cells were preserved | sufficient to stop diabetes progression | increase of Foxp3 regulatory T-cells | initial decrease in weight | improvement in glycemic control | reduced HA staining | reliably decreased blood glucose | 3 min |  | 
2 | Cc1cc(=O)oc2cc(O[C@@H]3O[C@H](C(=O)O)[C@@H](O)[C@H](O)[C@H]3O)ccc12 [4-MUG, 4-methylumbelliferone-glucuronide] | inhibited HA synthesis | inhibited HA synthesis | decrease of HA accumulation |  | delayed the onset of T1D |  | soon recovered | improvement in glycemic control | reduced HA staining | reliably decreased blood glucose |  | 300 fold | more than 3,000 fold
